Source: patent US20260250318A1, “COMPOSITIONS AND METHODS FOR CROSSING THE BLOOD BRAIN BARRIER” (VOYAGER THERAPEUTICS, INC., priority 2022, published 2026)

Key:
Settings in all cases: synthetic library passage 3, intravenous, relative to wild-type AAV9
[1] = system: brain, spinal cord, and DRG of the NHPs; test: NGS fold enrichment of synthetic library (passage 3) in NHPs, first cross-species screen; assay type: in vivo, cynomolgus macaques (Macaca fascicularis)
In short: (§1)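 Synthetic capsid library (passage 3) was given intravenously […] to NHPs aged 2-4 years and to BALB/c and C57Bl/6 mice (n=3 each, 6-8 weeks). After about 28 days in vivo, tissue RNA was RT-PCR amplified and NGS-sequenced; values are fold enrichment per variant relative to wild-type AAV9.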

[2] = system: brain; test: NGS fold enrichment of synthetic library (passage 3) in C57Bl/6 mice, first cross-species screen; assay type: in vivo
In short: as §1

[3] = system: brain; test: NGS fold enrichment of synthetic library (passage 3) in BALB/c mice, first cross-species screen; assay type: in vivo
In short: as §1

[4] = RNA from spinal cord of NHPs, NGS
[5] = RNA from brain of C57Bl/6 mice, NGS
[6] = RNA from brain of BALB/c mice, NGS

Sequence	Fold enrichment over AAV9 in the brain of NHPs ([1]; RNA from brain of NHPs, NGS)	Fold enrichment over AAV9 in the spinal cord of NHPs [1, 4]	Fold enrichment over AAV9 in the brain of Mice (C57Bl/6) [2, 5]	Fold enrichment over AAV9 in the brain of Mice (BALB/c) [3, 6]	Fold enrichment over AAV9 in the brain of NHPs ([1]; RNA NGS, brain of NHPs)	Fold enrichment over AAV9 in the spinal cord of NHPs ([1]; RNA NGS, spinal cord of NHPs)	Fold enrichment over AAV9 in the brain of Mice (C57Bl/6) ([2]; RNA NGS, brain of C57Bl/6 mice)	Fold enrichment over AAV9 in the brain of Mice (BALB/c) ([3]; RNA NGS, brain of BALB/c mice)
GSGQNQQTLTASKE	1.333 fold	1.152 fold	0.981 fold	1.172 fold	–	–	–	–
GSGQNQQTLYSSNT	–	–	–	–	1.642 fold	1.044 fold	0.664 fold	0.368 fold
GSGQNQQTMANGQR	1.394 fold	0.216 fold	1.169 fold	1.230 fold	–	–	–	–
GSGQNQQTMDHNRT	–	–	–	–	2.130 fold	4.944 fold	0.642 fold	0.440 fold
GSGQNQQTMIANIR	–	–	–	–	1.076 fold	0.000 fold	0.379 fold	0.458 fold
GSGQNQQTMLGKPC	1.125 fold	0.047 fold	1.090 fold	0.992 fold	–	–	–	–
GSGQNQQTMPQHKI	–	–	–	–	1.097 fold	2.394 fold	0.479 fold	0.197 fold
GSGQNQQTNLGHTT	1.383 fold	1.523 fold	1.343 fold	1.281 fold	–	–	–	–
GSGQNQQTNRGNPM	–	–	–	–	1.860 fold	3.402 fold	1.349 fold	1.098 fold
GSGQNQQTPGAHKT	–	–	–	–	1.105 fold	3.827 fold	0.957 fold	0.277 fold
GSGQNQQTPLRPPT	–	–	–	–	1.624 fold	0.352 fold	0.874 fold	0.472 fold
GSGQNQQTRLTDLT	–	–	–	–	2.046 fold	8.470 fold	0.910 fold	0.776 fold
GSGQNQQTRLVDLT	–	–	–	–	2.342 fold	9.348 fold	1.268 fold	0.490 fold
GSGQNQQTRQEGST	1.339 fold	0.000 fold	0.645 fold	0.718 fold	–	–	–	–
GSGQNQQTSGTTNC	–	–	–	–	1.854 fold	8.161 fold	1.040 fold	0.806 fold
GSGQNQQTSGVLTL	–	–	–	–	1.553 fold	0.000 fold	1.104 fold	0.782 fold

Sequence	Fold enrichment over AAV9 in the brain of NHPs ([1]; RNA from brain of NHPs, NGS)	Fold enrichment over AAV9 in the spinal cord of NHPs [1, 4]	Fold enrichment over AAV9 in the brain of Mice (C57Bl/6) [2, 5]	Fold enrichment over AAV9 in the brain of Mice (BALB/c) [3, 6]	Fold enrichment over AAV9 in the brain of NHPs ([1]; RNA NGS, brain of NHPs)	Fold enrichment over AAV9 in the spinal cord of NHPs ([1]; RNA NGS, spinal cord of NHPs)	Fold enrichment over AAV9 in the brain of Mice (C57Bl/6) ([2]; RNA NGS, brain of C57Bl/6 mice)	Fold enrichment over AAV9 in the brain of Mice (BALB/c) ([3]; RNA NGS, brain of BALB/c mice)
GSGQNQQTSHFPSA	1.185 fold	0.325 fold	0.969 fold	0.907 fold	–	–	–	–
GSGQNQQTSLQDQT	–	–	–	–	2.505 fold	0.500 fold	0.315 fold	0.968 fold
GSGQNQQTSLSNTA	–	–	–	–	1.959 fold	1.186 fold	1.567 fold	1.182 fold
GSGQNQQTSMSNAT	–	–	–	–	1.501 fold	6.766 fold	1.605 fold	0.745 fold
GSGQNQQTSPHNHT	–	–	–	–	2.761 fold	3.132 fold	1.524 fold	0.845 fold
GSGQNQQTSPRLQT	–	–	–	–	1.100 fold	0.795 fold	1.156 fold	1.091 fold
GSGQNQQTSQPLPG	1.141 fold	0.080 fold	0.748 fold	0.530 fold	–	–	–	–
GSGQNQQTSQSPPT	1.194 fold	1.208 fold	0.851 fold	0.478 fold	–	–	–	–
GSGQNQQTSTGVHS	–	–	–	–	1.660 fold	8.271 fold	1.039 fold	1.075 fold
GSGQNQQTSTTPLP	–	–	–	–	1.052 fold	2.823 fold	0.828 fold	0.741 fold
GSGQNQQTSVGFRT	–	–	–	–	1.077 fold	3.737 fold	0.648 fold	0.534 fold
GSGQNQQTSVSQNV	1.281 fold	0.750 fold	0.788 fold	0.715 fold	–	–	–	–
GSGQNQQTSVSQQT	1.342 fold	1.614 fold	1.030 fold	0.913 fold	–	–	–	–
GSGQNQQTSVYMNT	–	–	–	–	1.498 fold	0.613 fold	0.640 fold	0.983 fold
GSGQNQQTTAATRM	1.163 fold	3.925 fold	0.947 fold	1.005 fold	–	–	–	–
